Measured values published in ChEMBL document CHEMBL3991601, “The target landscape of clinical kinase drugs” (Science, 2017).
Calls of active or inactive are those of the source. For most assays here, no stated cut-off is given here; in the data, actives have a measured Kd and inactives only a lower limit.

Experiments:
[1] = biological target: Cyclin-dependent kinase 4 (Homo sapiens, UniProt P11802)
[2] = biological target: Cyclin-dependent kinase 12 (Homo sapiens, UniProt Q9NYV4)
DNA topoisomerase 2-beta = DNA topoisomerase 2-beta (Homo sapiens, UniProt Q02880)
[3] = biological target: T1, Thyroid hormone receptor-associated protein 3 (Homo sapiens, UniProt Q9Y2W1)
T1 sequence (Q9Y2W1 whole entry): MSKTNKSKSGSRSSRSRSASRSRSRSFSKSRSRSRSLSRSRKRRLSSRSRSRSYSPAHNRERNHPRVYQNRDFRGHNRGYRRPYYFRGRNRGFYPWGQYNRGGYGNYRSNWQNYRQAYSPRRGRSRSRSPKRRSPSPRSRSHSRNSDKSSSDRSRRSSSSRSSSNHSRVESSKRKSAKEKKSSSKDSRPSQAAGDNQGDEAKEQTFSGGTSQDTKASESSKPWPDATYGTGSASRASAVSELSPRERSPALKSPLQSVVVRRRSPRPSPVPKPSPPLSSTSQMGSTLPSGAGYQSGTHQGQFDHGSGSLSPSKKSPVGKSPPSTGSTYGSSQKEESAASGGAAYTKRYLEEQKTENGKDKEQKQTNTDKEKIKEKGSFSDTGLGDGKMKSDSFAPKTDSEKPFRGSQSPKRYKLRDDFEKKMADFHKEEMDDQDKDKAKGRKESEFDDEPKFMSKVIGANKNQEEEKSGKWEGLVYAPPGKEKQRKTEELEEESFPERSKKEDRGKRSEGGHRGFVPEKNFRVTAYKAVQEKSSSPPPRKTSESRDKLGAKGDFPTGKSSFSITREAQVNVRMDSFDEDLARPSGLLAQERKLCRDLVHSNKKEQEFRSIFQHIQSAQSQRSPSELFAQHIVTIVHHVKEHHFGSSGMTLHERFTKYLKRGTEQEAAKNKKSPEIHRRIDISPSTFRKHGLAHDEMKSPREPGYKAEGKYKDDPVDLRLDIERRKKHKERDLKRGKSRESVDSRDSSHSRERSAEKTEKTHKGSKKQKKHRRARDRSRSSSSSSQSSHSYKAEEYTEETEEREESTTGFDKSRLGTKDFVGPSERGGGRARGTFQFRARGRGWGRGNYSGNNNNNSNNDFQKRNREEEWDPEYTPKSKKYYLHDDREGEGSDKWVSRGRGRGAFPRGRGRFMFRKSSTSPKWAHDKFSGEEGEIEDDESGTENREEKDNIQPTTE

[4] = biological target: Mitogen-activated protein kinase kinase kinase 4 (Homo sapiens, UniProt Q9Y6R4)
Sequence of Mitogen-activated protein kinase kinase kinase 4 (Q9Y6R4 whole entry, the tested form may be a part): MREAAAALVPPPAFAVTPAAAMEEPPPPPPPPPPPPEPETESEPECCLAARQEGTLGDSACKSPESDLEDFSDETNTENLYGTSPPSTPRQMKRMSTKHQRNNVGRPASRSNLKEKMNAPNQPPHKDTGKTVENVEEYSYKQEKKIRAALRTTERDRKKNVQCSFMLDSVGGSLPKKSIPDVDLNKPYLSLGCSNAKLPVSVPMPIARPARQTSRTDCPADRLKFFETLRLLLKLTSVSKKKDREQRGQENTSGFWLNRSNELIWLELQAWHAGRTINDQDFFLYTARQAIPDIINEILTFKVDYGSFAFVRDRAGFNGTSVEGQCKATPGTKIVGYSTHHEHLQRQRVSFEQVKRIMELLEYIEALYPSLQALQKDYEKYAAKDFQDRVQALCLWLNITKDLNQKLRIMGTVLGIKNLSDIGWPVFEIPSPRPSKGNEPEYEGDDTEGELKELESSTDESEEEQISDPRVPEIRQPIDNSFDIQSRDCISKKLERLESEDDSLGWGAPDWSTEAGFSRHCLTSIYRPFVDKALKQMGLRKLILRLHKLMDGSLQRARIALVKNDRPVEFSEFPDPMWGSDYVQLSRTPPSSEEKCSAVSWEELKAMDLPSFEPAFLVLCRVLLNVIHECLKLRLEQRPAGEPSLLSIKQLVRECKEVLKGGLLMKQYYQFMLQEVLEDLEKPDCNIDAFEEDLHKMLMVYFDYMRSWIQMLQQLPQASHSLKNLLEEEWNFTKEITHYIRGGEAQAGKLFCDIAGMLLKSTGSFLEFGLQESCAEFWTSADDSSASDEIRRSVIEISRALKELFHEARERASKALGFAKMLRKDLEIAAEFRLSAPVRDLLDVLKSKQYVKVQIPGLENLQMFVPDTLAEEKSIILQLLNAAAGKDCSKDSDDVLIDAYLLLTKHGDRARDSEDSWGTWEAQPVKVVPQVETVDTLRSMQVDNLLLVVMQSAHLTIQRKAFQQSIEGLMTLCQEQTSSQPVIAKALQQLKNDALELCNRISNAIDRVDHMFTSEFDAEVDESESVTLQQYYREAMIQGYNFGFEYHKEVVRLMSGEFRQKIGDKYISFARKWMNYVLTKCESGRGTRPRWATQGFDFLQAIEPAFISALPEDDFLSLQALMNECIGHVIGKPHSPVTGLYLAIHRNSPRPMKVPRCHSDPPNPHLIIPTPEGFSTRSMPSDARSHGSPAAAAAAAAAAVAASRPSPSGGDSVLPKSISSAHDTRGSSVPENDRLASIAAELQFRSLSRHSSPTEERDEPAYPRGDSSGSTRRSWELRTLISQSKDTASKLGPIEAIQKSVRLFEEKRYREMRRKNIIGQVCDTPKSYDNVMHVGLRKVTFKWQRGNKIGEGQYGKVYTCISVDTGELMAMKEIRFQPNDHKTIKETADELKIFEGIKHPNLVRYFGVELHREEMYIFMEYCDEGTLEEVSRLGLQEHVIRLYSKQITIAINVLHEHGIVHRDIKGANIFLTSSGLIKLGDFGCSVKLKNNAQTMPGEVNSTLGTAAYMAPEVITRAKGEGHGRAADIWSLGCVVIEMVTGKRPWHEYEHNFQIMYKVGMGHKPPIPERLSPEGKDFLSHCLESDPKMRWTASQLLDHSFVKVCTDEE

[5] = biological target: Epithelial discoidin domain-containing receptor 1 (Homo sapiens, UniProt Q08345)
Sequence of Epithelial discoidin domain-containing receptor 1 (Q08345 whole entry, the tested form may be a part): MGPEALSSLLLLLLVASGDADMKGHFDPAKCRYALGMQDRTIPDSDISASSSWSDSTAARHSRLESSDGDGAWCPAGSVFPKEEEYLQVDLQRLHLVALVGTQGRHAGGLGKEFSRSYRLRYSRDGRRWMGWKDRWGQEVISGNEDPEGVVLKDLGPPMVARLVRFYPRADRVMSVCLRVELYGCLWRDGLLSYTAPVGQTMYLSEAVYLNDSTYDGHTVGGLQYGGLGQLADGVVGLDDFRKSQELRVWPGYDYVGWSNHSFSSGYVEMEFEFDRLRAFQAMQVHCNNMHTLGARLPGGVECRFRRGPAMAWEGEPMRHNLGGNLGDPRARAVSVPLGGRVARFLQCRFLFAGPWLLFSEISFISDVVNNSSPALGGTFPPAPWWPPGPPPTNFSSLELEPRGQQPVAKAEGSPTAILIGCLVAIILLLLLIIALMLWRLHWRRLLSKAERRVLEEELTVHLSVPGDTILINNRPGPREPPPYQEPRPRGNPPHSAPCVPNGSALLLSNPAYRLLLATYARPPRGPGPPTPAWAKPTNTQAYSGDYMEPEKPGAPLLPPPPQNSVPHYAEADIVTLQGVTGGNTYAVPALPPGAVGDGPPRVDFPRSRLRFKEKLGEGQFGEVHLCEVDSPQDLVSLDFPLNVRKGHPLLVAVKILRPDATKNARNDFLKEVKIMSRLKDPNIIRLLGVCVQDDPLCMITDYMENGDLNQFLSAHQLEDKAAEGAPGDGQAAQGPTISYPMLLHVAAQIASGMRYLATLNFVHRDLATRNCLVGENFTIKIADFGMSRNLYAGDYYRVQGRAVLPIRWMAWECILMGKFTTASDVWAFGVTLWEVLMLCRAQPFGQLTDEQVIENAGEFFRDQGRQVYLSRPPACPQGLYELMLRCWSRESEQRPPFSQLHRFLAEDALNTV

[6] = biological target: cAMP-dependent protein kinase catalytic subunit alpha (Homo sapiens, UniProt P17612)
[7] = biological target: Serine/threonine-protein kinase PAK 2 (Homo sapiens, UniProt Q13177)
Sequence of Serine/threonine-protein kinase PAK 2 (Q13177 whole entry): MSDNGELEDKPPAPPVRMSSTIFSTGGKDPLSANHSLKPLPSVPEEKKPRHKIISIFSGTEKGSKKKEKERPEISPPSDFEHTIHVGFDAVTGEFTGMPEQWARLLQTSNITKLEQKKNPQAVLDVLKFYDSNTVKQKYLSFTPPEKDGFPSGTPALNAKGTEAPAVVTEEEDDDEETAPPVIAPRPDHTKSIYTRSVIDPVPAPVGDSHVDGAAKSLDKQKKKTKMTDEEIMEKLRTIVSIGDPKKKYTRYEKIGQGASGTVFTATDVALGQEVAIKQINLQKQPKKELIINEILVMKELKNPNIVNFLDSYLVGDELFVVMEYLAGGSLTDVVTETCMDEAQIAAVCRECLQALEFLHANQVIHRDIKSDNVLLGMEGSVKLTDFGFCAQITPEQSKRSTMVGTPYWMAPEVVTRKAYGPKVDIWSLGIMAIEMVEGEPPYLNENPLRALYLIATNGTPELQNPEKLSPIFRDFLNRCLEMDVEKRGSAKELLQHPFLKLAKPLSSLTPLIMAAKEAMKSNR

[8] = biological target: T2, Dual specificity mitogen-activated protein kinase kinase 3 (Homo sapiens, UniProt P46734)
T2 sequence (P46734 whole entry): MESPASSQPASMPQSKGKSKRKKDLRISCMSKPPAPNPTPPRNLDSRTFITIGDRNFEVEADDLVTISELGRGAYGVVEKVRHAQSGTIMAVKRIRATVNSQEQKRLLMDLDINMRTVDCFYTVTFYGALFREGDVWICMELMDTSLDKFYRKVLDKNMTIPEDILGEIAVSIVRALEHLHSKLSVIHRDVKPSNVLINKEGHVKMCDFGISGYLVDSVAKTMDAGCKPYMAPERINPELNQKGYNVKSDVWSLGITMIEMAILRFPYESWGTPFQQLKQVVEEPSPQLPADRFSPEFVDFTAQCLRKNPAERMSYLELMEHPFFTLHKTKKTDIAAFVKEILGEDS

[9] = biological target: T3, Glycogen phosphorylase, brain form (Homo sapiens, UniProt P11216)
T3 sequence (P11216 whole entry): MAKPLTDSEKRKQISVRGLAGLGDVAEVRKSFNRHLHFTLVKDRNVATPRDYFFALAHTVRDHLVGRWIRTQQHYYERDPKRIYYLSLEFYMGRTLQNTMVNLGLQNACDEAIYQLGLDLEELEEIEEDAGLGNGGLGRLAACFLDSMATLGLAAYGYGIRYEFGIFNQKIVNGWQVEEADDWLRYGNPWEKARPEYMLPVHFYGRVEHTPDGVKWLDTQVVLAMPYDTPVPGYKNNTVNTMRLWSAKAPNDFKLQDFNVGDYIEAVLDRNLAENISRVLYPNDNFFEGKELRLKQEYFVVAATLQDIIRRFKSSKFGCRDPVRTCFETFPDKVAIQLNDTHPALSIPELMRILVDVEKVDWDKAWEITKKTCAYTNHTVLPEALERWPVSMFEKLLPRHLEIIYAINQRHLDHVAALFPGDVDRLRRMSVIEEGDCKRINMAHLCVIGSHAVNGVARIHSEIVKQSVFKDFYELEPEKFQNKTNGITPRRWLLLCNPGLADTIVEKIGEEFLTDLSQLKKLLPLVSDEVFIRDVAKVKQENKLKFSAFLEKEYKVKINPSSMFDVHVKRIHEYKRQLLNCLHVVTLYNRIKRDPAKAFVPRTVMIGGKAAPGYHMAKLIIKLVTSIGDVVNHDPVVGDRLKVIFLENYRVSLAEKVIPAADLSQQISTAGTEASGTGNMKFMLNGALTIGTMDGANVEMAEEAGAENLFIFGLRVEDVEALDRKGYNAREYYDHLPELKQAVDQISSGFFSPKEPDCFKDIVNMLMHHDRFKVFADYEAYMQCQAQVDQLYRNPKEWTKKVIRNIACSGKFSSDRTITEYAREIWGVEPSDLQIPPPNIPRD

Ephrin type-A receptor 4 = Ephrin type-A receptor 4 (Homo sapiens, UniProt P54764)
[10] = biological target: Mitogen-activated protein kinase 9 (Homo sapiens, UniProt P45984)
[11] = biological target: Rho-associated protein kinase 2 (Homo sapiens, UniProt O75116)
Sequence of Rho-associated protein kinase 2 (O75116 whole entry): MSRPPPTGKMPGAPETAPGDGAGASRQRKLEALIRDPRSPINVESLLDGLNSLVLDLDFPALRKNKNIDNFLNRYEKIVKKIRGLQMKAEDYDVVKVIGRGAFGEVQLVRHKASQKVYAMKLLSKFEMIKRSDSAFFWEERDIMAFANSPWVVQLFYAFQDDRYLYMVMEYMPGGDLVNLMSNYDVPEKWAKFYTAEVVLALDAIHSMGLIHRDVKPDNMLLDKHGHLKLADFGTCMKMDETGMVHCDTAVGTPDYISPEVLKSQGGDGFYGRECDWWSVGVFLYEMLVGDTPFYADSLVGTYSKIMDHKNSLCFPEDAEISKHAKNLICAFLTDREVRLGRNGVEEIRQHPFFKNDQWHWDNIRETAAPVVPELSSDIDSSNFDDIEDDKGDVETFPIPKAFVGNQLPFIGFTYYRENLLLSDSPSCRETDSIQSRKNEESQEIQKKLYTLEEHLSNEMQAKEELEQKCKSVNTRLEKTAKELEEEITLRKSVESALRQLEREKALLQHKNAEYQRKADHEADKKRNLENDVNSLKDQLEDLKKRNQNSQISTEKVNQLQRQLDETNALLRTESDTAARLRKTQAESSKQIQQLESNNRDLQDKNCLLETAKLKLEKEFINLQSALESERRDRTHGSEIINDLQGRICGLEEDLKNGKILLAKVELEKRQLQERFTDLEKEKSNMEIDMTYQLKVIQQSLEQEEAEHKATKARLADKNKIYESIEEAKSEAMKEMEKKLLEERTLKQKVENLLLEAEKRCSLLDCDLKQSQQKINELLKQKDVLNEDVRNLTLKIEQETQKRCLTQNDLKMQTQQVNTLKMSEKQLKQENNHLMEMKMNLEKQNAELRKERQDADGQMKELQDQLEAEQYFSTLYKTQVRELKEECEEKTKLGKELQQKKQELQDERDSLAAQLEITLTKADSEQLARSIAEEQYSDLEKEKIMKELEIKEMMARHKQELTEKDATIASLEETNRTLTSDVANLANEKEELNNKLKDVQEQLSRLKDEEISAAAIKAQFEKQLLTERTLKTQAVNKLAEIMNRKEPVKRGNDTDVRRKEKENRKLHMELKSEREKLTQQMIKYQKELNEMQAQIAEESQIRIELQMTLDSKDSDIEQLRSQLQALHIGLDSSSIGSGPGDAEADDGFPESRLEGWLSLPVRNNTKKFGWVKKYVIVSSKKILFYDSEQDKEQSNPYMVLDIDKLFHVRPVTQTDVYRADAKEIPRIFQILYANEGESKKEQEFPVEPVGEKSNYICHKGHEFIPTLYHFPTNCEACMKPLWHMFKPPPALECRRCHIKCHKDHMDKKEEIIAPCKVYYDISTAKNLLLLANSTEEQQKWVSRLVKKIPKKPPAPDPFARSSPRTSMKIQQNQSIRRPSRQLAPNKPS

[12] = biological target: Calcium/calmodulin-dependent protein kinase type II subunit delta (Homo sapiens, UniProt Q13557)
[13] = biological target: Mitogen-activated protein kinase kinase kinase 20 (Homo sapiens, UniProt Q9NYL2)

Sequence of Cyclin-dependent kinase 4 (P11802 whole entry): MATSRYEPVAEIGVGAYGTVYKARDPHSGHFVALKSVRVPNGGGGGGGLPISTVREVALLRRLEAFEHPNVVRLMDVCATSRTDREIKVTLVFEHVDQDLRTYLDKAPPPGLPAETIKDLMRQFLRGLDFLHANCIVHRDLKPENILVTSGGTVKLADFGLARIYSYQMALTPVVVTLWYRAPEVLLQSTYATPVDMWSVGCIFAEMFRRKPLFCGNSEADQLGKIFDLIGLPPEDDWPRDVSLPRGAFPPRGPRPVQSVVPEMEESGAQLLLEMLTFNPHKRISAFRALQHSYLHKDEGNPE

Row | Kd [1] | Kd [2] | Kd (DNA topoisomerase 2-beta) | Kd [3] | Kd [4] | Kd [5] | Kd [6] | Kd [7] | Kd [8] | Kd [9] | Kd (Ephrin type-A receptor 4) | SMILES | Kd [10] | Kd [11] | Kd [12] | Kd [13]
1 | > 30 µM (inactive) | > 30 µM (inactive) | > 30 µM (inactive) | > 30 µM (inactive) | > 30 µM (inactive) | > 30 µM (inactive) | > 30 µM (inactive) | > 30 µM (inactive) | > 30 µM (inactive) | > 30 µM (inactive) |  | COc1cc(Nc2ncc3c(n2)-c2ccc(Cl)cc2C(c2c(F)cccc2OC)=NC3)ccc1C(=O)O [ALISERTIB] |  |  |  | 
2 | 1.29 µM (active) | > 30 µM (inactive) | > 30 µM (inactive) | > 30 µM (inactive) |  |  | 3.19 µM (active) | > 30 µM (inactive) | > 30 µM (inactive) | > 30 µM (inactive) | 43.9 µM (active) | O=C(Nc1c[nH]nc1-c1nc2cc(CN3CCOCC3)ccc2[nH]1)NC1CC1 [AT-9283] | 0.509 µM (active) | > 30 µM (inactive) | > 30 µM (inactive) | > 30 µM (inactive)
3 |  | > 30 µM (inactive) | > 30 µM (inactive) | > 30 µM (inactive) | > 30 µM (inactive) | > 30 µM (inactive) | > 30 µM (inactive) | > 30 µM (inactive) | > 30 µM (inactive) | > 30 µM (inactive) | > 30 µM (inactive) | FC(F)(F)c1ccc(/C=C/c2nc(COc3ccc(CCCCn4ccnn4)cc3)co2)cc1 [MUBRITINIB] | > 30 µM (inactive) | > 30 µM (inactive) | > 30 µM (inactive) | > 30 µM (inactive)
4 | > 30 µM (inactive) | > 30 µM (inactive) | > 30 µM (inactive) | > 30 µM (inactive) | > 30 µM (inactive) | > 30 µM (inactive) |  | > 30 µM (inactive) | > 30 µM (inactive) | > 30 µM (inactive) | > 30 µM (inactive) | Cc1[nH]c(/C=C2\C(=O)Nc3ccccc32)c(C)c1CCC(=O)O [ORANTINIB] |  |  |  | 
5 | > 30 µM (inactive) | > 30 µM (inactive) | > 30 µM (inactive) | > 30 µM (inactive) | > 30 µM (inactive) | > 30 µM (inactive) | 0.935 µM (active) | > 30 µM (inactive) | > 30 µM (inactive) | > 30 µM (inactive) | > 30 µM (inactive) | Cc1nc(Nc2n[nH]c3c2CN(C(=O)N[C@H](CN(C)C)c2ccccc2)C3(C)C)c2sccc2n1 [PF-03758309] | > 30 µM (inactive) | > 30 µM (inactive) |  | > 30 µM (inactive)

Row | SMILES | Kd [1] | Kd [2] | Kd (DNA topoisomerase 2-beta) | Kd [3] | Kd [4] | Kd [5] | Kd [6] | Kd [7] | Kd [8] | Kd [9] | Kd (Ephrin type-A receptor 4) | Kd [10] | Kd [11] | Kd [12] | Kd [13]
6 | CCOc1cc2ncc(C#N)c(Nc3ccc(F)c(Cl)c3)c2cc1NC(=O)/C=C/CN(C)C [PELITINIB] | > 30 µM (inactive) | > 30 µM (inactive) | > 30 µM (inactive) | > 30 µM (inactive) |  | > 30 µM (inactive) | > 30 µM (inactive) | > 30 µM (inactive) | > 30 µM (inactive) | > 30 µM (inactive) | > 30 µM (inactive) | > 30 µM (inactive) | > 30 µM (inactive) | > 30 µM (inactive) | 0.875 µM (active)
7 | CNC(=O)c1cc(Oc2ccc(NC(=O)Nc3cc(C(C)(C)C)nn3-c3ccc4ncccc4c3)c(F)c2)ccn1 [REBASTINIB] |  | > 30 µM (inactive) | > 30 µM (inactive) | > 30 µM (inactive) | > 30 µM (inactive) | 0.272 µM (active) | > 30 µM (inactive) | > 30 µM (inactive) | > 30 µM (inactive) | > 30 µM (inactive) | > 30 µM (inactive) | 0.98 µM (active) | > 30 µM (inactive) | > 30 µM (inactive) | 0.388 µM (active)
8 | CN1CCN(CCOc2cc(OC3CCOCC3)c3c(Nc4c(Cl)ccc5c4OCO5)ncnc3c2)CC1 [SARACATINIB] | > 30 µM (inactive) | > 30 µM (inactive) | > 30 µM (inactive) | > 30 µM (inactive) | > 30 µM (inactive) | 4.4 µM (active) | > 30 µM (inactive) |  | > 30 µM (inactive) | > 30 µM (inactive) | 0.917 µM (active) | > 30 µM (inactive) | > 30 µM (inactive) | > 30 µM (inactive) | 2.98 µM (active)
